# In patent US10780069B2, “Use of GC-1 in transplant related population” (University of Pittsburgh—Of the Commonwealth System of …, priority 2017, dated 2020):
# Entries after “also recorded” stand apart in the source; their conditions may differ.
# How the values were obtained:
# [1] = test system: β-catenin-TCF4 reporter activity in Hep3B cells (wild-type CTNNB1); test: TopFlash reporter assay in Hep3B cells; format: cell-based, human; settings: 7 μM GC-1 (methods: 5-7 μM, 24 hours), vs DMSO
# From the text: Three liver tumor cell lines Hep3B, HepG2 and Snu-398 cells were obtained from ATCC (Manassas, Va.). Cells were transfected simultaneously with Renilla reniformis luciferase (pRL-TK; Promega, Madison, Wis.) as a transfection control and TopFlash firefly luciferase plasmids (Upstate Biotechnology, Lake Placid, N.Y.), which contains three copies of the Tcf/Lef sites upstream of a thymidine kinase (TK) promoter and the firefly luciferase gene using Lipofectamine 2000 (Life Technologies). Twenty-four hours after transfection, cells were treated with either DMSO (Fisher Scientific) or 5-7 μM GC-1 (Medchem Express, Monmouth Junction, N.J.) for 24 hours. Lysates were harvested using the Dual-Luciferase Reporter Assay System (Promega, Madison, Wis.). Firefly luciferase signals were normalized to Renilla luciferase and ratio between groups compared by student's t-test to determine significance. P<0.05 was considered significant.
# [2] = test system: hepatocytes; test: GC-1 or T3 in hepatocyte specific β-catenin knockout mice (β-Cat LKO) and littermate controls; format: in vivo; settings: control mice, GC-1 treated vs basal diet
# [3] = test system: hepatocytes; test: as above; format: in vivo
# Method: Eight to 10 week old male hepatocyte specific β-catenin knockout mice (β-cat-LKO) or sex-matched littermate controls obtained from breeding homozygous floxed β-catenin mice and albumin-cre transgenic mice (as described elsewhere (Tan et al., (2006) Gastroenterology 131, 1561-1572)) were given 8 daily IP injections of GC-1 (n=4) or DMSO (n=4) and harvested around 24 hours after the last injection.
# To label dividing hepatocytes, BrdU (5-bromodeoxyuridine) dissolved in drinking water (1 mg/ml) was given to all animals throughout the experiment period. The animals were given food and water ad libitum with a 12-hour light/dark daily cycle.
# Four micron liver sections were analyzed by immunohistochemistry for β-Catenin (BD Biosciences, San Jose, Calif.), Cyclin-D1 (Thermo-Scientific, Fremont, Calif.) and PCNA (Santa Cruz Biotechnology, Dallas, Tex.). Briefly, formalin-fixed sections were deparaffinized in graded xylene and alcohol. Endogenous peroxidase was inactivated using 3% hydrogen peroxide (Sigma). For β-Catenin, Cyclin-D1 staining, slides were microwaved in Citrate buffer followed by blocking with Superblock for 10 minutes. Sections were then incubated with secondary anti-mouse (for β-catenin) or anti-rabbit (for Cyclin-D1) horseradish peroxidase-conjugated antibody for 30 minutes.
# Bromodeoxyuridine (BrdU) was stained with mouse antibody (Becton Dickinson) as previously described (Fanti et al. (2014) Hepatology 59, 2309-2320). Briefly, tissue sections were deparaffinized, exposed to 0.3% hydrogen peroxide in deionized water for 10 minutes to block endogenous peroxidase, treated with 2N HCl, incubated with trypsin 0.1% for 20 minutes and then with normal goat serum for 20 minutes at room temperature. Sections were then incubated overnight in cold room with anti-BrdU monoclonal antibody, followed by biotinylated goat anti-mouse IgG. DAB kit was then applied, and sections were counterstained with hematoxylin. A small segment of intestine was included from each mouse as a positive control for the staining. For quantification of BrdU staining, at least 10 high power fields (400× or 600×) fields each from at least three biological replicates were counted as indicated in the figures. Statistical analysis was performed as described below.
# Protein extraction from frozen liver tissue and western blot analysis were performed as previously described (Fanti et al., (2014) Hepatology 59, 2309-2320). For protein extraction, a small amount of frozen liver tissue was obtained (over dry ice) and was homogenized using RIPA buffer with protease and phosphatase inhibitor cocktail (Sigma, St. Louis, Mo.). Samples were transferred to a 1.5 ml tube on ice, and spun in cold room centrifuge at 14,000 RPM for 5 minutes. Pellet was then discarded and sample was aliquoted and stored at −80 C for use. Fifty micrograms of the proteins were resolved by sodium dodecyl sulfate-polyacrylamide gel electrophoresis analysis, and transferred to immobilon-polyvinylidene difluoride membranes.
# The primary antibodies used were against β-catenin (BD Biosciences); pSer675-β-catenin, pSer552-β-catenin, Active-β-catenin (Cell-Signaling), Cyclin-D1 (Thermo-Scientific), and β-Actin (Sigma). Dilutions of primary antibody were done according to manufacturer recommendations (1:1000 for all except Cyclin-D1 which was 1:200). Horseradish peroxidase-conjugated secondary antibodies used were goat anti-mouse (1:20,000) and goat anti-rabbit (1:10,000) (Millipore). The proteins were detected by Super-Signal West Pico Chemiluminescense Substrate (Thermo Scientific, Rockford Ill.) and visualized by autoradiography.
# Total RNA was extracted by homogenizing frozen liver tissues in Trizol reagent (Invitrogen, Carlsbad, Calif.) from GC-1-injected β-Cat LKO (n=4) and littermate control mice (n=4); and GC-1-injected LRP5-6 LKO (n=3) and littermate control mice (n=3). […]
# [4] = Serum ALT/bilirubin and hepatic histology after GC-1 or T3; format: in vivo, mice
# Method: All studies on mice were performed in strict accordance with Guidelines. Eight-week old male C57BL/6 male mice (Jackson/Charles River) were maintained on a standard laboratory basal diet (Test Diet) (n=4), or fed a T3-supplemented diet (4 mg/Kg of diet, Sigma Chemicals, St. Louis Mo.) (n=4). GC-1 was administered to the eight week-old male C57BL/6 male mice either via GC-1-supplemented diet (5 mg/Kg of diet, Medchem Express) for 8 days (n=4) or via daily intraperitoneal injections (IP) of GC-1 dissolved in DMSO (0.3 mg/kg/dose) for 8 days (n=7). As a control group for injections, DMSO alone was injected daily intraperitoneal (IP) for 8 days (n=5). Mice were sacrificed 24 hours after the last injection.
structure (smiles),measurement,setting,value
"Cc1cc(OCC(=O)O)cc(C)c1Cc1ccc(O)c(C(C)C)c1 [GC-1, Sobetirome]",TopFlash luciferase reporter activity,[1],no significant effect; also recorded: insignificant differences
same,"active-β-catenin, Western blot",[2],notable increase
same,"active β-catenin, Western blot",[3]; β-Cat LKO after T3 or GC-1 treatment,very faint signal
same,"P-Ser675-β-catenin, Western blot",[3]; β-Cat LKO vs controls treated with GC-1 or T3,absent
same,nuclear cyclin-D1 by immunohistochemistry,"[3]; β-Cat LKO vs controls, GC-1",notable decrease
same,BrdU incorporation in hepatocytes (hepatocyte proliferation),"[3]; β-Cat LKO vs littermate controls, GC-1 0.3 mg/Kg/dose IP, 8 days",decreased hepatocyte proliferation
same,BrdU incorporation in non-parenchymal cell population,"[3]; β-Cat LKO, GC-1 IP",notable BrdU incorporation continued to occur
same,cyclin-D1 mRNA expression (RT-PCR),[3]; β-catenin-LKO mice receiving GC-1 vs controls,significant decrease
same,serum ALT or total bilirubin,"[4]; GC-1 0.3 mg/Kg/dose daily IP 8 days, vs DMSO control",insignificant differences
same,hepatic histology (H&E),"[4]; GC-1 daily IP 8 days, vs DMSO control",normal hepatic histology
same,histological changes in the livers,"[4]; T3 (4 mg/Kg of diet) or GC-1 (5 mg/Kg of diet) chow 8 days, vs basal diet",no histological changes
